Experimental data taken from article doi:10.1101/2023.12.04.569845, “Identification of 4-(6-((2-methoxyphenyl)amino)pyrazin-2-yl)benzoic acids as CSNK2A inhibitors with antiviral activity and improved selectivity over PIM3” (bioRxiv, 2023).
Where two headings read alike, the source gives them in different places. Each block holds one compound with its values, some of them ahead of it.

What was measured:
Assay in all cases: biochemical
Design in all cases: Thermal shift (DSF, SYPRO Orange) Tm shift of recombinant kinase domains at 10 uM compound
[1] = molecular target: SLK (Homo sapiens, UniProt Q9H2G2)
[2] = molecular target: T1, MSSK1 (Homo sapiens, UniProt Q9UPE1)
T1 construct: gene SRPK3

[3] = molecular target: T2, MAP2K7 (Homo sapiens, UniProt O14733)
T2 sequence (O14733 1-419): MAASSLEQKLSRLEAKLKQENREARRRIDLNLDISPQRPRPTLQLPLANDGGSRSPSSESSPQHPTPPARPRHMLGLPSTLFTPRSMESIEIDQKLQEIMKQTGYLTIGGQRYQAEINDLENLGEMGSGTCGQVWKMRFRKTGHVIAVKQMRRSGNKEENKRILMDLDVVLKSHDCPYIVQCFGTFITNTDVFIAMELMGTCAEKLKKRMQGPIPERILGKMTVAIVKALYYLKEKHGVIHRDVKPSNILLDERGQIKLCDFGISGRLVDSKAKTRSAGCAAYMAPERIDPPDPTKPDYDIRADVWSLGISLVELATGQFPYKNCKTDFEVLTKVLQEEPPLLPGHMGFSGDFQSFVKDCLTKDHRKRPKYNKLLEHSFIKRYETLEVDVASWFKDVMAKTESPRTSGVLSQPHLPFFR

[4] = molecular target: T3, Haspin (Homo sapiens, UniProt Q8TF76)
T3 sequence (Q8TF76 1-798): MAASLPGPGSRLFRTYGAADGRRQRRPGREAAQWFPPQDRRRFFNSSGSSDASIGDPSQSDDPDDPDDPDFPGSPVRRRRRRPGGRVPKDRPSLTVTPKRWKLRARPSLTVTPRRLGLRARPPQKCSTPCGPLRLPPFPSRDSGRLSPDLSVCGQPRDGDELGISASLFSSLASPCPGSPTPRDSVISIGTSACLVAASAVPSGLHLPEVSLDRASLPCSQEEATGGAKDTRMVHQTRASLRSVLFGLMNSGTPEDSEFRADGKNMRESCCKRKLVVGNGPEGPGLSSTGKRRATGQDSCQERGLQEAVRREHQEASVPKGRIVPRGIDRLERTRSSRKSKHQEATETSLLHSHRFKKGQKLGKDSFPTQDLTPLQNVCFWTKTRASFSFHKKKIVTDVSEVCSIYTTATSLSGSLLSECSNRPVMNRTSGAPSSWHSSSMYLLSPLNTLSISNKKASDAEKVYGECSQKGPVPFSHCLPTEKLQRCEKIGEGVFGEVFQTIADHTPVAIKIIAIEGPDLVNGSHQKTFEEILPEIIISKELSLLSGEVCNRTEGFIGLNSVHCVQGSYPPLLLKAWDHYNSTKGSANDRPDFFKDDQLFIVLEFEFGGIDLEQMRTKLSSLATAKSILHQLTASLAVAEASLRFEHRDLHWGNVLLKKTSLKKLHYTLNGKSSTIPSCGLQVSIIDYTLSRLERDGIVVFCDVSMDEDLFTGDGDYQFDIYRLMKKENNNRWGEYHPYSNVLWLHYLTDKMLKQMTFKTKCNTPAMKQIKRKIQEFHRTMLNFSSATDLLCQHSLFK

[5] = molecular target: T4, CK1d (Homo sapiens, UniProt P48730)
T4 construct: gene CSNK1D

[6] = molecular target: T5, DMPK1 (Homo sapiens, UniProt Q09013)
T5 construct: gene DMPK
T5 sequence (Q09013 1-629): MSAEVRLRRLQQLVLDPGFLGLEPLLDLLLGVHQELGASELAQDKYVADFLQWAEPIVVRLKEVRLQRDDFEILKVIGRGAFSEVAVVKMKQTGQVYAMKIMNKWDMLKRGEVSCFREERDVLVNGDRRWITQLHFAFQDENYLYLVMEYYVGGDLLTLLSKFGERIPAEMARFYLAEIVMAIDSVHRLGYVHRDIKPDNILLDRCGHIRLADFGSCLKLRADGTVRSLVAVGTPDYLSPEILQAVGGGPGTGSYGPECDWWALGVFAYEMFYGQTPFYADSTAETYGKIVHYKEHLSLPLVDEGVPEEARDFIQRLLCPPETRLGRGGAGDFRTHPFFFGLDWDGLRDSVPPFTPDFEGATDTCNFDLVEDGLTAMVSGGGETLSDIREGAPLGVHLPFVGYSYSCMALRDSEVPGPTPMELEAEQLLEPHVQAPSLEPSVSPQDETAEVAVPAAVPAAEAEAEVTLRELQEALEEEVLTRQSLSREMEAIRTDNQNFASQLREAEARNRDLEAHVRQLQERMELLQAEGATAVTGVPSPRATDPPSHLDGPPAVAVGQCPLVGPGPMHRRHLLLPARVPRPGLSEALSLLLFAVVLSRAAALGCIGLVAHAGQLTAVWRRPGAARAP

[7] = molecular target: T6, VRK1 (Homo sapiens, UniProt Q99986)
T6 sequence (Q99986 1-396): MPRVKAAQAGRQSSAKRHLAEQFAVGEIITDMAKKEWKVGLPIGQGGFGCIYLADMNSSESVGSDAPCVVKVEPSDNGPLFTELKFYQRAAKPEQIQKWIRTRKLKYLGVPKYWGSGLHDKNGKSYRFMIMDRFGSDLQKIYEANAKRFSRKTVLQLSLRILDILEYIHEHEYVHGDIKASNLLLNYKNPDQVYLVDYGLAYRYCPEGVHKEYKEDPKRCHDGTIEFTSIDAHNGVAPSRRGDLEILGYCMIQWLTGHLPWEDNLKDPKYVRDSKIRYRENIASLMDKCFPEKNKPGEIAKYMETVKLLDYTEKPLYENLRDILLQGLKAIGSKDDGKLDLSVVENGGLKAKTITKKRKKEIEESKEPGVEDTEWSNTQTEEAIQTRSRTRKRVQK

T1 sequence (Q9UPE1 whole entry): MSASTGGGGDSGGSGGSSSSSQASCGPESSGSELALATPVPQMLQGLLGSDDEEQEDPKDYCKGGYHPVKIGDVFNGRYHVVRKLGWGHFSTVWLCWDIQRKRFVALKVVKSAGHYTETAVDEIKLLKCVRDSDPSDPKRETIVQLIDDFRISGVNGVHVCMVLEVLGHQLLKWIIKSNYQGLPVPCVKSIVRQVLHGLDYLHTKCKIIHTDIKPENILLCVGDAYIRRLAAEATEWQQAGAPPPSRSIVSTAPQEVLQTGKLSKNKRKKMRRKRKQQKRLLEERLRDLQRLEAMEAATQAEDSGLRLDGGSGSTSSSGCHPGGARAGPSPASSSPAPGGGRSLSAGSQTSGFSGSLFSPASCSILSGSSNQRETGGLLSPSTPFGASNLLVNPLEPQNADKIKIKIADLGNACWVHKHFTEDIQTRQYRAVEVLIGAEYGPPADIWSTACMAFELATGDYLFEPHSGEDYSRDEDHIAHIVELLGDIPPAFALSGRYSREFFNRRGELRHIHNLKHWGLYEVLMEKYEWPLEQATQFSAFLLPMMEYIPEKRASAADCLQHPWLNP
T4 sequence (P48730 whole entry): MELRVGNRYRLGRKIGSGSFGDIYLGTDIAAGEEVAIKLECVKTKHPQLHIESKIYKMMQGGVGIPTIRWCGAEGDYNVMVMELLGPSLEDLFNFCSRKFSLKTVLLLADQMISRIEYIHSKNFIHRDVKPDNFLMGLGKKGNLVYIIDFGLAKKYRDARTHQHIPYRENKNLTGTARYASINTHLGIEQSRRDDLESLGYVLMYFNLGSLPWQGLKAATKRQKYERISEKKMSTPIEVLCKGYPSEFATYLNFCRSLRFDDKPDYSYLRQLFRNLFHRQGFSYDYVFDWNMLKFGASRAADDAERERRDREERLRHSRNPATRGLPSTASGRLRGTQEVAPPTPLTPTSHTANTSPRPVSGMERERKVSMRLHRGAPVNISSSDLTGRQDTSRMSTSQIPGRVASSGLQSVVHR
SLK, sequence (Q9H2G2 whole entry): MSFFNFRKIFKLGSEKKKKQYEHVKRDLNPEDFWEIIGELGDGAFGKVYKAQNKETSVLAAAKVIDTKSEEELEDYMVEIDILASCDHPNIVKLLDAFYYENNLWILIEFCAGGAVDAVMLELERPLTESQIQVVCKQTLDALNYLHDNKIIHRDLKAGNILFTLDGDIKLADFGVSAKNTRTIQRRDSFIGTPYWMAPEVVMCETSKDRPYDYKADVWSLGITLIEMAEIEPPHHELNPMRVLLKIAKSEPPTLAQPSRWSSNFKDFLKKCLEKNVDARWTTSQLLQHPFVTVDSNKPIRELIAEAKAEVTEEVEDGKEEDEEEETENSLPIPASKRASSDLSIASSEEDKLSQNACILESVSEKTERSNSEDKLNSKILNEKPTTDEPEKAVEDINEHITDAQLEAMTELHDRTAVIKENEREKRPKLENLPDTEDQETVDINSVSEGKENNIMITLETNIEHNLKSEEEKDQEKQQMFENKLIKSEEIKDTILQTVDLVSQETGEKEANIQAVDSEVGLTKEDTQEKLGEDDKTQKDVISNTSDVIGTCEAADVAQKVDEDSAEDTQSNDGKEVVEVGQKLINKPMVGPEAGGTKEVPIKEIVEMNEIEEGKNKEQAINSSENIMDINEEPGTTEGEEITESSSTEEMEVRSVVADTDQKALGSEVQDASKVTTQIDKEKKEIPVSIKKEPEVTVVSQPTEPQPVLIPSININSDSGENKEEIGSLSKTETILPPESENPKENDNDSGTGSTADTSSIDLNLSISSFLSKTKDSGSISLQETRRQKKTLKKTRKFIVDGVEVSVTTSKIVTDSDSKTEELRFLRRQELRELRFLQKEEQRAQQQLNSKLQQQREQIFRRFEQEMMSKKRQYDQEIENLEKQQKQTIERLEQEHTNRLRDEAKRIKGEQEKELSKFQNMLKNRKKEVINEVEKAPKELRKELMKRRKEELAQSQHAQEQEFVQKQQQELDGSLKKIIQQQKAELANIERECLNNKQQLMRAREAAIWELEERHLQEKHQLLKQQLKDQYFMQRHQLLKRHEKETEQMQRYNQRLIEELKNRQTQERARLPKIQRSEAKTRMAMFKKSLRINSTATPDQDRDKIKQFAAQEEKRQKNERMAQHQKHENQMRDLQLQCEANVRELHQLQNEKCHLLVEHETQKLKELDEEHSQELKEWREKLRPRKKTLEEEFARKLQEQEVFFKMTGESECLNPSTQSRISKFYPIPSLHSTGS

ΔTm at 10 µM ([1]; read-out: 7c): 1 °C
ΔTm at 10 µM ([2]; read-out: 7c): 1 °C
ΔTm at 10 µM ([3]; read-out: 7c): -1 °C
ΔTm at 10 µM ([4]; read-out: 7c): 5 °C
ΔTm at 10 µM ([5]; read-out: 7c): 2 °C
ΔTm at 10 µM ([6]; read-out: 7c): 0 °C
ΔTm at 10 µM ([7]; read-out: 7c): 0 °C
SMILES: COc1ccc(OC(C)C)cc1Nc1cncc(-c2ccc(C(=O)O)cc2)n1 [7c]

ΔTm at 10 µM ([1]; read-out: 6c): 2 °C
ΔTm at 10 µM ([2]; read-out: 6c): 1 °C
ΔTm at 10 µM ([3]; read-out: 6c): 0 °C
ΔTm at 10 µM ([4]; read-out: 6c): 0 °C
ΔTm at 10 µM ([5]; read-out: 6c): 3 °C
ΔTm at 10 µM ([6]; read-out: 6c): 0 °C
ΔTm at 10 µM ([7]; read-out: 6c): 0 °C
SMILES: CC(C)Oc1ccc2ccn(-c3cncc(-c4ccc(C(=O)O)cc4)n3)c2c1 [6c]

ΔTm at 10 µM ([1]; read-out: 2): 3 °C
ΔTm at 10 µM ([2]; read-out: 2): 3 °C
ΔTm at 10 µM ([3]; read-out: 2): 0 °C
ΔTm at 10 µM ([4]; read-out: 2): 3 °C
ΔTm at 10 µM ([5]; read-out: 2): 3 °C
ΔTm at 10 µM ([6]; read-out: 2): 0 °C
ΔTm at 10 µM ([7]; read-out: 2): 1 °C
SMILES: CC(C)Nc1ccc2cnn(-c3cncc(-c4ccc(C(=O)O)cc4)n3)c2c1 [compound 2, 2]
